Key:
XG1 = assay: Cell Titer Glo viability, XG1 HMCL; assay type: cell-based, human; conditions: XG1, CTG viability
Experimental: (§1) AMO-1 and OPM2 HMCLs were purchased from DSMZ (Braunschweig, Germany), XG1 and XG21 were obtained as described (Moreaux et al., 2011). HMCLs were cultured in RPMI 1640 medium, 10% FCS (control medium). For XG-IL-6 dependent HMCLs 2 ng/ml IL-6 was added. Cells were cultured in 96-well flat-bottom microtiter plates in the presence of a concentration range of selected compounds: AZD7762 and OTSSP167 (Selleck, euromedex), HITOPK032, XL413, SRPIN340 (Sigma), AZ3146, Centrinone B (Tocris). Cell Titer Glo Luminescent Assay (Promega, Madison, Wis., USA) was used to assess cell viability, and the 50% inhibition (IC50) was determined using GraphPad Prism software (http://www.graphpad.com/scientific-software/prism/).
(§2) Statistical comparisons were done with unpaired or paired Student's t-tests. The effect of drug combination was evaluated using the methods developed by Chou and Talalay (Chou and Talalay, 1984) by calculating the combination Index (CI), with CI<1, CI=1, and CI>1 respectively indicating synergism, additive effects, and antagonism. Here we used CI=0.90-1.10 to indicated additivity.

XG7 WT and XG7 Mres = assay: Viability of melphalan sensitive and resistant cell lines (CTG); assay type: cell-based, human; conditions: inhibitor at IC20
Experimental: FIG. 32 represents a graph of the calculated IC50 for the co-treatment with melphalan and selected kinase inhibitors at IC20. Melphalan sensitive (XG7 WT) and Resistant (XG7 MRes) cell lines were treated for 4 days with the selected kinases inhibitors. Cell viability was monitored by the CTG. p-value: *<0.05; **<0.01; ***<0.001.
The facts that: 1) all drugs tested are actively decreasing HMCLs viability and induce apoptosis; 2) co-treatment with melphalan leads to synergy or potentialized the decrease of cell viability; 3) some of the selected kinases inhibitors can reverse the resistance to lenalidomide in AMO1 HMCL, led us to question the capability of these drugs to reverse or reduce also melphalan resistance. In that purpose, the inventors used a cell line developed in the inventors' laboratory, and that has been culture to resist to melphalan (Mres) compare to its negative control (WT) (FIG. 30). The inventors first tested the capacity of the different inhibitors to reduce cell viability in this model. All tested kinase's inhibitors lower cell viability of the control or the melphalan resistant cell line.

AMO1 = assay: Cell Titer Glo viability, AMO1 HMCL; assay type: cell-based, human; conditions: for IC20 / IC50: AMO1, CTG viability
Experimental: as §1, §2

AMO1 HMCL [1] = assay: Cell cycle analysis by flow cytometry; assay type: cell-based, human; conditions: for cell cycle arrest on co-treatment with melphalan or lenalidomide: AMO1, 4 days co-treatment; for cell cycle arrest: AMO1, single agent
Source text: FIG. 15 represents graphs showing the effects of the treatments with inhibitors on cell cycle in AMO1 cells. p-value: *<0.05; **<0.01; ***<0.001.
FIG. 29 represents graphs illustrating that Co-treatments differentially affect cell cycle in AMO1 cell line. Cotreatment with Melphalan or Lenalidomide and A) AZD7762; B) OTSSP167; C) Centrinone B; D) XL413. Cell cycle was monitored by flow cytometry after 4 days co-treatments. p-value: *<0.05; **<0.01; ***<0.001.
(§3) Cells were culture in 12 wells plate for 4 days. Apoptotic cells were detected using phycoerythrin-conjugated Annexin V (PE-annexin V, BD Pharmingen). For the cell cycle and DNA damage, we used the Apoptosis, DNA damage and cell proliferation kit (BD), following the manufacturer's protocol.

AMO1 HMCL [2] = assay: Apoptosis (annexin V, PARP cleavage) by flow cytometry; assay type: cell-based, human; conditions: for cell death via apoptosis (annexin) on co-treatment: AMO1, sub-lethal Melphalan or Lenalidomide + inhibitor at IC20, 4 days
Source text: FIG. 14 represents graphs showing that inhibitors increase apoptosis (annexin and PARP) in AMO1 cell line; Annexin and PARP were monitored by flow cytometry after 4 days treatments. p-value: *<0.05; **<0.01; ***<0.001.
FIG. 25 represents graphs illustrating that the co-treatments induce cell death and differentially affect DNA damages in AMO1 HMCL. Co-treatment with selected kinase inhibitors at IC20 and Melphalan or Lenalidomide.
as §3

AMO1 HMCL [3] = assay: DNA damage (γH2AX) by flow cytometry; assay type: cell-based, human; conditions: for γH2AX (DNA damages), used alone: AMO1, 4 days
Source text: FIG. 27 represents graphs illustrating that the co-treatments induce cell death and differentially affect DNA damages in AMO1 HMCL.
FIG. 28 represents graphs representing DNA damages following SRPIN340 and AZ3146 co-treatment in AMO1 cell line. γH2AX were monitored by flow cytometry after 4 days treatments. p-value: *<0.05; **<0.01; ***<0.001.
as §3

OPM2 = assay: Cell Titer Glo viability, OPM2 HMCL; assay type: cell-based, human; conditions: OPM2, CTG viability
Experimental: as §1, §2

XG21 = assay: Cell Titer Glo viability, XG21 HMCL; assay type: cell-based, human; conditions: XG21, CTG viability
Experimental: as §1, §2

[4] = tested on: HMCLs (AMO1, OPM2, XG1, XG21); assay: HMCL viability, single and co-treatment with conventional MM drugs (CTG); assay type: cell-based, human; conditions: for synergy with melphalan / Lenalidomide treatment on co-treatment with kinase inhibitor / synergy with lenalidomide: inhibitor at IC20; for synergy with melphalan / synergy with lenalidomide: XG1, XG21, AMO1, OPM2; for Lenalidomide treatment on co-treatment with kinase inhibitor: AMO1 and OPM2
Experimental: as §1, §2
Keeping in mind the main objective of identifying alternative and efficient complementary treatment for MM patients, the inventors next performed co-treatment on HMCLs with commonly used therapeutic drugs in MM (e.g. Melphalan, Lenalidomide, Velcade) and the different kinases inhibitors. In order to fit to the goal of a combination treatment the inventors used an arbitrary […] for all the kinases inhibitors, which the inventors associated with various concentration of the standard therapeutic.

[5] = tested on: primary Mouse myeloma (5T33vv) and mouse myeloma cell line (5T33vt); assay: Mouse myeloma cell viability (CTG); assay type: cell-based; conditions: 5T33vv and 5T33vt, CTG after 24, 48 or 96 hours
Experimental: FIG. 18 represents graphs cell viability of primary Mouse myeloma (5T33vv) and mouse myeloma cell line (5T33vt), monitored by CTG after 24, 48 or 96 hours treatment with indicated inhibitors.

[6] = tested on: normal BM microenvironment cells from patients; assay: Toxicity on non-tumoral bone marrow cells in primary patient cultures; assay type: cell-based, human; conditions: N=5 patients, 4 days
Source text: CD138 amount was monitored by flow cytometry after 4 days of treatment.

[7] = tested on: primary MM cells from patients; assay: Primary myeloma cell cytotoxicity (CD138 flow cytometry); assay type: cell-based, human; conditions: N=5 patients, 4 days of treatment
Source text: FIG. 16 represents graphs showing the % of CD138+ cells after treatment by AZD7762, OTSSP167 and Centrinone B in 5 different primary MM cells.
FIG. 17 represents graphs showing that the three tested inhibitors reduce % of tumor MM cells without toxicity on normal BM microenvironment cells from patients (N=5). CD138 amount was monitored by flow cytometry after 4 days of treatment.
Bone marrow of patients presenting with previously untreated MM (N=5) at the university hospital of Montpellier was obtained after patients' written informed consent in accordance with the Declaration of Helsinki and agreement of the Montpellier University Hospital Centre for Biological Resources (DC-2008-417). Primary myeloma cells of patients were cultured with or without graded concentrations of selected inhibitors and MMC cytotoxicity evaluated using anti-CD138-Phycoerythrin monoclonal antibody and CD38-Allophycocyanin (Beckman-Coulter) as described (Moreaux et al., 2012).

AMO1 HMCL [8] = assay: Proteome profiler array (phospho kinases, apoptosis proteins); assay type: cell-based, human; conditions: AMO1, 48 h treatment
Experimental: Proteins accumulations were monitored after 48 h treatment on AMO1 HMCL using proteome profiler array. Relative amount was calculated as the mean of pixel density. Phospho kinases and apoptosis proteins were quantified using the dedicated proteome Profiler™ array (RD systems, Bio-techne) following the manufacturer instructions. 500 μg and 300 μg protein were used for the two arrays respectively.

Row | Molecule | IC50 (XG1) [nM] | melphalan resistance on co-treatment with melphalan (XG7 WT and XG7 Mres) | IC20 (AMO1) [nM] | IC50 (AMO1) [nM] | cell cycle arrest (AMO1 HMCL [1]) | cell death via apoptosis (annexin) on co-treatment (AMO1 HMCL [2]) | γH2AX (DNA damages), used alone (AMO1 HMCL [3]) | IC50 (OPM2) [nM] | IC50 (XG21) [nM] | synergy with melphalan [4] | cell viability in mouse cellular model of multiple myeloma [5] | effect on non-tumoral cells [6] | number of tumoral cells (CD138+) [7] | Lenalidomide treatment on co-treatment with kinase inhibitor [4] | synergy with lenalidomide [4] | also measured
1 | Cl.O=c1[nH]c([C@@H]2CCCN2)nc2c1oc1ccc(Cl)cc12 [XL413] | 4200 | reversed the melphalan resistance | 9400 | 19900 | arrested the cells in S phase | increase cell death via apoptosis | showed an activity on […]H2AX recruitment when used alone | 24500 | 30300 | synergized with the conventional treatment | – | – | – | – | – | cell cycle arrest on co-treatment with melphalan or lenalidomide (AMO1 HMCL [1]): no differences between single and co-treatment
2 | CC(=O)c1cnc2ccc(-c3cc(Cl)c(O)c(Cl)c3)nc2c1N[C@H]1CC[C@H](CN(C)C)CC1 [OTSSP167] | – | – | – | – | arrested the cells in S phase | increase cell death via apoptosis | showed an activity on […]H2AX recruitment when used alone | – | – | synergized with the conventional treatment | demonstrated similar efficiency | barely affected | reduced the number of tumoral cells | potentialized | synergized with the conventional treatment | IC50 (XG1; Homo sapiens): 12 nM; IC20 (AMO1; Homo sapiens): 5.4 nM; IC50 (AMO1; Homo sapiens): 8.2 nM; cell cycle arrest on co-treatment with melphalan or lenalidomide (AMO1 HMCL [1]): no differences between single and co-treatment; γH2AX (DNA damages) on co-treatment with melphalan (AMO1 HMCL [3]; AMO1, inhibitor at IC20, 4 days): significantly potentialized the melphalan co-treatment by increasing […]H2AX; IC50 (OPM2; Homo sapiens, OPM-2): 16 nM; IC50 (XG21; Homo sapiens): 2 nM
3 | N#Cc1c2nc3ccccc3nc2n2ccc(NC(=O)c3cccs3)cc12 [HI)TOPK] | 4400 | reversed the melphalan resistance | 3900 | 5100 | – | – | – | 5000 | 4100 | synergized with the conventional treatment | – | – | – | potentialized | synergized with the conventional treatment | –
4 | COc1c(Nc2cc(C)[nH]n2)nc(Sc2ccc(S(=O)(=O)Cc3cccc([N+](=O)[O-])c3F)cc2F)nc1N1CCCCC1 [Centrinone-B] | 226 | – | 24 | 421 | arrested the cell cycle in G0/G1 | potentialized cell death only with lenalidomide | – | 440 | 1390 | – | less effective on cell viability | barely affected | reduced the number of tumoral cells | – | synergized with the conventional treatment | –
5 | N[C@@H](Cc1ccc(N(CCCl)CCCl)cc1)C(=O)O [melphalan] | – | – | – | – | – | – | increased the measured […]H2AX | – | – | – | – | – | – | – | – | –
6 | AZ3146 | 1200 | – | 1400 | 2600 | arrested the cell cycle in G0/G1 | didn't have any significant additional effect on cell death | – | 1900 | 3000 | – | – | – | – | – | – | –
7 | NC(=O)Nc1cc(-c2cccc(F)c2)sc1C(=O)N[C@H]1CCCNC1 [AZD7762] | – | reversed the melphalan resistance | – | – | arrested the cells in S phase | increase cell death via apoptosis | – | – | – | synergized with the conventional treatment | demonstrated similar efficiency | barely affected | reduced the number of tumoral cells | potentialized | synergized with the conventional treatment | IC50 (XG1; Homo sapiens): 95 nM; IC20 (AMO1; Homo sapiens): 82 nM; IC50 (AMO1; Homo sapiens): 136 nM; claspin and survivin (AMO1 HMCL [8]): decrease in claspin and survivin; IC50 (OPM2; Homo sapiens, OPM-2): 116 nM; IC50 (XG21; Homo sapiens): 210 nM
8 | Nc1cccc2c1CN(C1CCC(=O)NC1=O)C2=O (stereo not shown) [lenalidomide] | – | – | – | – | – | – | didn't demonstrate any particular effect | – | – | – | – | – | – | – | – | Lenalidomide IC50, treatment alone (AMO1; AMO1): undetermined; Lenalidomide effect on viability alone or in combination ([4]; lenalidomide resistant HMCLs XG1 and XG21): no effect of the treatment alone or in combination
9 | O=C(Nc1cc(C(F)(F)F)ccc1N1CCCCC1)c1ccncc1 [SRPIN340] | 30100 | – | 30000 | 43300 | – | didn't have any significant additional effect on cell death | showed an activity on […]H2AX recruitment when used alone | 33200 | 25800 | – | – | – | – | – | synergized with the conventional treatment | apoptosis as measured by annexin V staining and PARP clivage (AMO1 HMCL [2]; AMO1, single agent, 2 concentrations surrounding IC50, 4 days): all drugs but SRPIN340/SRPK1 induced apoptosis
